Reference: patent US7759345B2, “Antitumoral derivatives of ET-743” (priority 2001, dated 2010)
Like-named read-outs stand apart in the source and are kept apart here.

What was measured:
DU-145 = experiment: Inhibition of cell growth by counting cells, DU-145; format: cell-based, human; details: read-out: IC50 (molar) DU-145
Protocol: (§1) 1°.—Inhibition of Cell Growth by Counting Cells.
(§2) This form of the assay employs 24 well multidishes of 16 mm diameter (Bergeron, 1984; Schroeder, 1981). The tumor cell lines employed are: P-388 (ATCC CCL 46), suspension culture of a lymphoid neoplasm from a DBA/2 mouse; A-549 (ATCC CCL 185), monolayer culture of a human lung carcinoma; HT-29 (ATCC HTB-38), monolayer culture of a human colon carcinoma; MEL-28 (ATCC HTB-72), monolayer culture of a human melanoma and DU-145 (ATCC HTB-81), monolayer culture of a human prostate carcinoma.
(§3) Cells were maintained, in logarithmic phase of growth in Eagle's Minimum Essential Medium, with Earle's Balanced Salts, with non-essential amino acids, with 2.0 mM L-Glutamine, without sodium bicarbonate (EMEM/neaa), supplemented with 10% Fetal Calf Serum (FCS), 10^−2 M. sodium bicarbonate and 0.1 U/l penicillin G+0.1 g/l streptomycin sulfate. For the experiments, cells are harvested from subconfluent cultures using trypsin and resuspended in fresh medium before plating.
(§4) A-549, HT-29, MEL-28 and DU-145 cells were seeded into 16 mm diameter wells at 1×10^4 cells per well in 1 ml aliquots of EMEM 5% FCS containing different concentrations of the sample to be tested. A separate set of cultures without drug was seeded as control of growth, to ensure that cells remained in exponential phase of growth. All determinations are carrying out in duplicate. After three days of incubation at 37° C., 5% CO2 in a 98% humid atmosphere cells were stained with 0.1% crystal violet. An approximately IC50 was determined by comparing the growth in wells with drug to the growth in wells control.
(§5) For quantifying the activity, after the incubation time, cells are trypsinized and counted in a Coulter Counter ZM. All counts (net cells per well), represent the average of duplicate wells. % G, percent of growth relative to cultures without drug. The results of these assays are used to generate dose-response curves from which more precise IC50 values are determined (sample concentration which produces 50% cell growth inhibition).
(§6) Obtained results may predict the usefulness of a certain drug as a potential cancer treatment. For this technique, compounds which show IC50 values smaller than 1 μg/ml are selected to continue with further studies. IC50's data allow to predict that not only could a drug be cystostatic, but also it could have a potential in terms of tumor reduction.

A-549 [1] = experiment: Inhibition of cell growth by counting cells, A-549; format: cell-based, human; details: three days of incubation, read-out: IC50 (molar) A-549
In short: (§7)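 Growth inhibition by direct cell counting: exponentially growing cells treated 3 days with compound at 37° C; IC50 derived from dose-response of net cells per well.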

MEL-28 = experiment: Inhibition of cell growth by counting cells, MEL-28; format: cell-based, human; details: three days of incubation, read-out: IC50 (molar) MEL-28
Protocol: as §1, §2, §3, §4, §5, §6

P-388 = experiment: Inhibition of cell growth by counting cells, P-388; format: cell-based, mouse; details: three days of incubation, read-out: IC50 (molar) P-388
Protocol: as §1, §2, §3
P-388 cells were seeded into 16 mm diameter wells at 1×10^4 cells per well in 1 ml aliquots of EMEM 5% FCS containing different concentrations of the sample to be tested. A separate set of cultures without drug was seeded as control of growth, to ensure that cells remained in exponential phase of growth. All determinations are carrying out in duplicate.
as §5, §6

HT-29 [2] = experiment: Inhibition of cell growth by counting cells, HT-29; format: cell-based, human; details: three days of incubation, read-out: IC50 (molar) HT-29
In short: as §7

SK-MEL-28 = experiment: Inhibition of cells growth by colorimetric assay (SRB), SK-MEL-28; format: cell-based; details: Homo sapiens, SK-MEL-28, 48 h, SRB assay, 48 hours exposure; read-out: MEL-28 GI50
Protocol: (§8) 2°.—Inhibition of Cells Growth by Colorimetric Assay.
(§9) A colorimetric type of assay, using sulforhodamine B (SRB) reaction has been adapted for a quantitative measurement of cell growth and viability [following the technique described by Philip Skehan, et al. (1990), New colorimetric cytotoxicity assay for anticancer drug screening, J. Natl. Cancer Inst., 82:1107-1112]
(§10) This form of the assay employs 96 well cell culture microplates of 9 mm diameter (Faircloth, 1988; Mosmann, 1983). Most of the cell lines are obtained from American Type Culture Collection (ATCC) derived from different human cancer types.
(§11) Cells are maintained in RPMI 1640 10% FBS, supplemented with 0.1 g/l penicillin and 0.1 g/l streptomycin sulfate and then incubated at 37° C., 5% CO2 and 98% humidity. For the experiments, cells were harvested from subconfluent cultures using trypsin and resuspended in fresh medium before plating.
(§12) Cells are seeded in 96 well microtiter plates, at 5×10^3 cells per well in aliquots of 195 μl medium, and they are allowed to attach to the plate surface by growing in drug free medium for 18 hours. Afterward, samples are added in aliquots of 5 μl in a ranging from 10 to 10^−8 μg/ml, dissolved in DMSO/EtOH/PBS (0.5:0.5:99). After 48 hours exposure, the antitumor effect are measured by the SRB methodology: cells are fixed by adding 50 μl of cold 50% (wt/vol) trichloroacetic acid (TCA) and incubating for 60 minutes at 4° C. Plates are washed with deionized water and dried. One hundred μl of SRB solution (0.4% wt/vol in 1% acetic acid) is added to each microtiter well and incubated for 10 minutes at room temperature. Unbound SRB is removed by washing with 1% acetic acid. Plates are air dried and bound stain is solubilized with Tris buffer. Optical densities are read on a automated spectrophotometric plate reader at a single wavelength of 490 nm.
(§13) The values for mean+/−SD of data from triplicate wells are calculated. Some parameters for cellular responses can be calculated: GI=growth inhibition, TGI=total growth inhibition (cytostatic effect) and LC=cell killing (cytotoxic effect).
as §6, with “GI50” for “IC50”, “10” for “1”, “GI50's” for “IC50's”

HT-29 [3] = experiment: Inhibition of cells growth by colorimetric assay (SRB), HT-29; format: cell-based
Protocol: as §8, §9, §10, §11, §12, §13
as §6, with “GI50” for “IC50”, “10” for “1”, “GI50's” for “IC50's”

A-549 [4] = experiment: Inhibition of cells growth by colorimetric assay (SRB), A-549; format: cell-based
Protocol: as §8, §9, §10, §11, §12, §13
as §6, with “GI50” for “IC50”, “10” for “1”, “GI50's” for “IC50's”

[5] = Homo sapiens, DU-145, 72 h, three days of incubation

Structure (SMILES) | IC50 (DU-145; [5]) | IC50 (A-549 [1]; Homo sapiens, A549, 72 h) | IC50 (MEL-28; Homo sapiens, SK-MEL-28, 72 h) | IC50 (P-388; Mus musculus, P388, 72 h) | IC50 (HT-29 [2]; Homo sapiens, HT-29, 72 h) | also measured
COc1cc2c(cc1OC(=O)C(F)(F)F)CCN[C@]21CS[C@@H]2c3c(OC(C)=O)c(C)c4c(c3[C@H](COC1=O)N1C2[C@H]2c3c(cc(C)c(OC)c3O)C[C@@H]([C@@H]1C#N)N2C)OCO4 (stereo partly shown) [Compound 3] | 1.15 nM | 1.15 nM | 1.15 nM | 1.15 nM | 1.15 nM | 
COc1cc2c(cc1OC(=O)OC(C)(C)C)CCN[C@]21CS[C@@H]2c3c(OC(C)=O)c(C)c4c(c3[C@H](COC1=O)N1C2[C@H]2c3c(cc(C)c(OC)c3O)C[C@@H]([C@@H]1C#N)N2C)OCO4 (stereo partly shown) [Compound 4] | 0.115 nM | 0.115 nM | 0.115 nM | 0.115 nM | 0.115 nM | 
COc1cc2c(cc1OC(=O)OC(C)(C)C)CCN[C@]21CS[C@@H]2c3c(OC(C)=O)c(C)c4c(c3[C@H](COC1=O)N1C2[C@H]2c3c(cc(C)c(OC)c3OC(=O)OC(C)(C)C)C[C@@H]([C@@H]1C#N)N2C)OCO4 (stereo partly shown) [Compound 5] | 0.515 nM | 0.515 nM | 0.515 nM | 0.515 nM | 0.515 nM | 
CCCC(=O)Oc1cc2c(cc1OC)[C@@]1(CS[C@@H]3c4c(OC(C)=O)c(C)c5c(c4[C@H](COC1=O)N1C3[C@H]3c4c(cc(C)c(OC)c4O)C[C@@H]([C@@H]1C#N)N3C)OCO5)NCC2 (stereo partly shown) [Compound 7] | 0.595 nM | 0.119 nM | 0.119 nM | 0.119 nM | 0.595 nM | 
COc1cc2c(cc1OC(=O)/C=C/c1ccccc1)CCN[C@]21CS[C@@H]2c3c(OC(C)=O)c(C)c4c(c3[C@H](COC1=O)N1C2[C@H]2c3c(cc(C)c(OC)c3O)C[C@@H]([C@@H]1C#N)N2C)OCO4 (stereo partly shown) [Compound 8] |  | 0.111 nM | 0.111 nM | 0.111 nM | 0.556 nM | IC50 (DU-145; Homo sapiens, DU-145, 72 h): 0.556 nM
CCCC(=O)Oc1cc2c(cc1OC)[C@@]1(CS[C@@H]3c4c(OC(C)=O)c(C)c5c(c4[C@H](COC1=O)N1C3[C@H]3c4c(cc(C)c(OC)c4OC(=O)CCC)C[C@@H]([C@@H]1C#N)N3C)OCO5)NCC2 (stereo partly shown) [Compound 9] | 0.11 nM | 0.11 nM | 0.11 nM | 0.11 nM | 0.11 nM | 
COc1cc2c(cc1OC(=O)/C=C/c1ccccc1)CCN[C@]21CS[C@@H]2c3c(OC(C)=O)c(C)c4c(c3[C@H](COC1=O)N1C2[C@H]2c3c(cc(C)c(OC)c3OC(=O)/C=C/c3ccccc3)C[C@@H]([C@@H]1C#N)N2C)OCO4 (stereo partly shown) [Compound 10] |  | 9.7 nM | 9.7 nM | 9.7 nM | 9.7 nM | IC50 (DU-145; Homo sapiens, DU-145, 72 h): 9.7 nM
CCCCCCCC(=O)Oc1cc2c(cc1OC)[C@@]1(CS[C@@H]3c4c(OC(C)=O)c(C)c5c(c4[C@H](COC1=O)N1C3[C@H]3c4c(cc(C)c(OC)c4O)C[C@@H]([C@@H]1C#N)N3C)OCO5)NCC2 (stereo partly shown) [Compound 14] |  |  |  |  |  | IC50 (DU-145; three days of incubation): 1.11 nM; IC50 (A-549 [1]): 1.11 nM; IC50 (MEL-28): 1.11 nM; IC50 (P-388): 1.11 nM; IC50 (HT-29 [2]): 1.11 nM
CCCCCCCC(=O)Oc1cc2c(cc1OC)[C@@]1(CS[C@@H]3c4c(OC(C)=O)c(C)c5c(c4[C@H](COC1=O)N1C3[C@H]3c4c(cc(C)c(OC)c4OC(=O)CCCCCCC)C[C@@H]([C@@H]1C#N)N3C)OCO5)NCC2 (stereo partly shown) [Compound 15] | 97.8 nM | 97.8 nM | 97.8 nM | 97.8 nM | 97.8 nM | 
CCCCCCCCCCCCCCCC(=O)Oc1cc2c(cc1OC)[C@@]1(CS[C@@H]3c4c(OC(C)=O)c(C)c5c(c4[C@H](COC1=O)N1C3[C@H]3c4c(cc(C)c(OC)c4O)C[C@@H]([C@@H]1C#N)N3C)OCO5)NCC2 (stereo partly shown) [Compound 16] | 9.91 nM | 9.91 nM | 9.91 nM | 9.91 nM | 9.91 nM | 
CCCCCCCCCCCCCCCC(=O)Oc1cc2c(cc1OC)[C@@]1(CS[C@@H]3c4c(OC(C)=O)c(C)c5c(c4[C@H](COC1=O)N1C3[C@H]3c4c(cc(C)c(OC)c4OC(=O)CCCCCCCCCCCCCCC)C[C@@H]([C@@H]1C#N)N3C)OCO5)NCC2 (stereo partly shown) [Compound 17] | 80.2 nM | 80.2 nM | 80.2 nM | 80.2 nM | 80.2 nM | 
COc1cc2c(cc1OC(=O)OC(C)(C)C)CCN[C@]21CS[C@@H]2c3c(OC(C)=O)c(C)c4c(c3[C@H](COC1=O)N1C2[C@H]2c3c(cc(C)c(OC)c3O)C[C@@H]([C@@H]1C#N)N2C(=O)OC(C)(C)C)OCO4 (stereo partly shown) [Compound 190] |  | 5.22 nM | 5.22 nM | 5.22 nM | 5.22 nM | 
C=CCOc1c(OC)c(C)cc2c1[C@H]1N[C@@H](C2)[C@H](C#N)N2C1[C@@H]1SC[C@]3(NCCc4cc(O)c(OC)cc43)C(=O)OC[C@H]2c2c3c(c(C)c(OC(C)=O)c21)OCO3 (stereo partly shown) [Compound 201] |  | 15.7 nM | 15.7 nM | 12.6 nM | 15.7 nM | 
CCCCCCCCCCCCCCCC(=O)Oc1cc2c(cc1OC)[C@@]1(CS[C@@H]3c4c(OC(C)=O)c(C)c5c(c4[C@H](COC1=O)N1C3[C@@H]3N[C@@H](Cc4cc(C)c(OC)c(O)c43)[C@@H]1O)OCO5)NCC2 (stereo partly shown) [Compound 215] |  |  |  |  |  | GI50 (SK-MEL-28): 19.7 nM; GI50 (HT-29 [3]; Homo sapiens, HT-29, 48 h, SRB assay, 48 hours exposure, read-out: HT-29 GI50): 86.8 nM; LC50 (concentration for 50% cell killing) (HT-29 [3]; Homo sapiens, HT-29, 48 h, read-out: HT-29 LC50, SRB assay, 48 hours exposure): 10100 nM; HT-29 TGI (HT-29 [3]; SRB assay, 48 hours exposure): 1.01E-05; GI50 (A-549 [4]; Homo sapiens, A549, 48 h, SRB assay, 48 hours exposure, read-out: A-549 GI50): 92.4 nM; LC50 (concentration for 50% cell killing) (A-549 [4]; Homo sapiens, A549, 48 h, read-out: A-549 LC50, SRB assay, 48 hours exposure): 10100 nM; A-549 TGI (A-549 [4]; SRB assay, 48 hours exposure): 1.01E-05
